Measurements reported in ChEMBL document CHEMBL5226287, “Small organic molecules targeting the energy metabolism of Mycobacterium tuberculosis” (Eur J Med Chem, 2021).
≈ marks a conversion by molar mass, not a printed value. Starred links: 1 amine or outer side, 2 acyl side, 3 side chain; linkers in the order of their positions; H or OH if unused. Non-standard residues stand in square brackets, D forms with d. Residues, ends and D or L forms follow the SMILES beside them. ξ: configuration not given here. *: point of attachment. X1 = CCC(=O)C[C@@H](O)C[C@@H](C)C[C@H](N[*:1])C(=O)[*:2]; Alaψ(CH2NMeCH2CH2OH) = C[C@@H](CN(C)CCO)N*; Decanoyl(2R-Me) = CCCCCCCC[C@@H](C)C(=O)*; Ile(3ξ) = CCC(C)[C@H](N)C(=O)O; ξβ3hP = O=C(O)CC1CCCN1; Aib = CC(C)(N)C(=O)O

Columns and labels:
Format in all cases: functional
[1] = test system: Mycobacterium tuberculosis variant bovis; test: Antimycobacterial activity against Mycobacterium bovis BCG ATCC 35737 at 50 uM by Luminescence assay
[2] = test system: Mycobacterium tuberculosis variant bovis; test: Antibacterial activity against Mycobacterium bovis BCG assessed as inhibition of bacterial growth by microdilution based analysis
[3] = test system: Mycobacterium tuberculosis variant bovis; test: Antimycobacterial activity against Mycobacterium bovis BCG assessed as reduction in bacterial growth incubated for 48 hrs by HT-SPOTi assay
[4] = test system: Mycobacterium tuberculosis variant bovis; test: Antibacterial activity against Mycobacterium bovis BCG assessed as complete inhibition of bacterial growth by Alamar Blue/Resazurin

Which MIC [1] does the source give for `Cc1ccc(C(=O)N2CCOCC2)cc1Nc1nccn1-c1cc(NC2CC2)ncn1` here?
The MIC was 0.036 µM (≈ 0.0151 µg/mL).

How did the MIC [2] turn out when `Cc1ccc2nc(C)c(C(=O)NCc3ccc(C(F)(F)F)cc3)n2c1` was run?
The MIC was 0.5 µM (≈ 0.174 µg/mL).

Which MIC50 [3] does the source give for `CCCCCCCC[C@@H](C)C(=O)N1CCCC1CC(=O)N[C@@H](C[C@H](C)C[C@H](O)CC(=O)CC)C(=O)NC(C)(C)C(=O)NC(C)(C)C(=O)N[C@H](C(=O)N[C@H](C(=O)NC(C)(C)C(=O)NC(C)(C)C(=O)N[C@@H](C)CN(C)CCO)C(C)C)C(C)CC` (stereo partly drawn) ({Decanoyl(2R-Me)}-[ξβ3hP][X1][Aib][Aib][Ile(3ξ)]V[Aib][Aib]-{Alaψ(CH2NMeCH2CH2OH)}) here?
Its MIC50 is 33 µM (≈ 38.9 µg/mL).

How did the MIC90 [4] turn out when `CCc1nc2ccc(Cl)cn2c1C(=O)NCc1ccc(N2CCC(c3ccc(OC(F)(F)F)cc3)CC2)cc1` [TELACEBEC] was run?
The MIC90 was 0.125 µg/mL (≈ 0.224 µM).
